Measured values from US7132443B2, “Fluoropyrrolidines as dipeptidyl peptidase inhibitors” (SmithKlineBeecham Corporation, priority 2001, dated 2006).
Structures can show the parent of a compound that is named as a salt. Where two headings read alike, the source gives them in different places.

Key:
human DPP-IV = target: T1, human DPP-IV (Homo sapiens, UniProt P27487); assay: DPP-IV assay (H-Ala-Pro-pNA hydrolysis, absorbance); format: biochemical
T1 construct: The material was isolated from human prostasomes using the method of DeMeester et al; purchased Athens Research and Technology, Inc; host or cells: human prostasomes (natural source)
Experimental: A 500 mM stock solution was prepared with dimethylsulfoxide and stored at −20° C. Gly-Pro-AMC was purchased from Enzyme System Products (product no. AMC-39) and stored at −20° C. as a 10 mM stock solution in dimethylsulfoxide. Test compounds were dissolved to 10 mM in dimethylsulfoxide and this was used as a stock solution for DPP-IV titration assays. Athens Research and Technology, Inc prepared the purified human DPP-IV. The material was isolated from human prostasomes using the method of DeMeester et al., J. Immunol.
The average enzymatic activity from wells containing dimethylsulfoxide but lacking test compound was used as a control value for calculating percent inhibition. DPP-IV (20 ng/mL) was mixed in microtiter plates with test compounds, substrate and assay buffer to yield 100 μM H-Ala-Pro-pNA•HCl in 25 mM Tris, pH 7.5, 10 mM KCl, 140 mM NaCl. The intact peptide contains a p-nitrophenylanilide which, when hydrolyzed by DPP-IV, releases the absorbant p-nitrophenylaniline. […] The enzymatic activity was determined by estimating the best linear fit to the data. Values for enzymatic activity were taken directly from the linear fit determined by the software on the plate reader.
Data Analysis: The enzymatic activity was determined by estimating the best linear fit to the data. Data reduction was performed using the Microsoft Excel RoboSage.
Determination of Ki values: Ki values were calculated from IC50 values using equation 3 assuming a competitive model.

DPP-IV activity in serum [1] = target: T2, DPP-IV activity in serum (Rattus norvegicus, UniProt P14740); assay: DPP-IV activity in serum of rats 6 hrs after oral dosing; format: in vivo; details: for inhibition at 1 mg/kg: rat, read-out: Percent DPP-IV inhibition At 6 hrs In Rats; for duration of action: rats, 6 hrs after 1 mg/kg oral
T2 construct: from tissue; host or cells: serum/plasma of male CD rats dosed orally
Experimental: Age and weight matched male CD rats were housed individually at 72° F. and 50% relative humidity with a 12 h light/dark cycle. Animals were dosed by oral gavage with vehicle (10 mM acetic acid) or 1 mg/kg test compound in vehicle. After 6 hrs administration of compound, the rats were anesthetized with isofluorane for cardiac blood collection. DPP-IV activity in serum was measured using the fluorogenic substrate Gly-Pro-AMC (50 mM) according to the manufacturers specification (Enzyme System Products, Livermore Calif.). The substrate was mixed with 50 mM Tris, pH 7.8, in plasma (20% final v/v) and the samples were incubated for 5–20 min at 30° C. DPP-IV activity was determined by measuring fluorescence using a cytofluor spectrofluoremeter with the filters set at 360 nm excitation and 460 nm emission. Averages and standard deviations from each group (n=3) were calculated using students t-test and compared to vehicle treated rats to determine percent inhibition as shown in Table 1.

[2] = Stability studies in Phosphate Buffered Saline by HPLC (cyclization/degradation half-life); details: PBS; for half-life: Phosphate Buffered Saline
Text: (§1) An initial time point HPLC chromatogram is obtained followed by successive HPLC chromatograms at time points of 24, 48, 72, etc hours.
(§2) The area under the drug substance peak is compared to the initial area for each chromatogram and plotted as percent remaining from initial time (t0).

dogs = assay: Dose escalation studies in dogs, limiting gastrointestinal toxicity; format: in vivo
Experimental: The dog is a common non-rodent species routinely used to satisfy regulatory requirements. The beagle was chosen to examine the safety of the compounds of the present invention because of the knowledge of this strain's general pathology and response to a wide variety of drugs. Dogs (Marshall Farms Inc., North Rose, N.Y., USA) from 9 to 12 months (5 to 12 kg) were dosed by oral gavage at 10 mL/kg/day with vehicle (10 mM acetic acid, pH 3.3) or test compound in vehicle. Each dose was followed by a flush of approximately 10 mL of water, once daily with 24–48 hours between each subsequent dose. If limiting gastrointestinal toxicity was not observed, the dose was increased 3-fold no sooner than approximately 24 hours after the preceding dose. Limiting GI toxicity includes diarrhea, loose or mucoid feces, blood in stool, and/or sloughing of the gut epithelium. Clinical observations were made at least three times daily during treatment (once prior to dosing, approximately one hour post dose, and once in conjunction with pm viability). DPP-IV activity in serum was measured using the fluorogenic substrate Gly-Pro-AMC (50 mM) according to the manufacturers specification (Enzyme System Products, Livermore Calif.). […] DPP-IV activity was determined by measuring fluorescence using a cytofluor spectrofluoremeter with the filters set at 360 nm excitation and 460 nm emission.

DPP-IV activity in serum [3] = target: T3, DPP-IV activity in serum (Canis lupus familiaris, UniProt A0A8I3Q2I8); assay: DPP-IV activity in serum of dogs after oral dosing; format: in vivo; details: dog, read-out: inhibited DPP4 12 hours after oral dosing
T3 construct: The substrate was mixed with 50 mM Tris, pH 7.8, in serum (20% final v/v); from tissue; host or cells: serum of beagle dogs dosed orally

physchem = details: buffer, t1/2 at 37° C.
Text: as §1, §2

[4] = Table I, read-out: IC50 (nM) Human DPP-IV
[5] = human DPP-IV, text b860, read-out: IC50 values

T2 sequence (P14740 37-767 limits assumed): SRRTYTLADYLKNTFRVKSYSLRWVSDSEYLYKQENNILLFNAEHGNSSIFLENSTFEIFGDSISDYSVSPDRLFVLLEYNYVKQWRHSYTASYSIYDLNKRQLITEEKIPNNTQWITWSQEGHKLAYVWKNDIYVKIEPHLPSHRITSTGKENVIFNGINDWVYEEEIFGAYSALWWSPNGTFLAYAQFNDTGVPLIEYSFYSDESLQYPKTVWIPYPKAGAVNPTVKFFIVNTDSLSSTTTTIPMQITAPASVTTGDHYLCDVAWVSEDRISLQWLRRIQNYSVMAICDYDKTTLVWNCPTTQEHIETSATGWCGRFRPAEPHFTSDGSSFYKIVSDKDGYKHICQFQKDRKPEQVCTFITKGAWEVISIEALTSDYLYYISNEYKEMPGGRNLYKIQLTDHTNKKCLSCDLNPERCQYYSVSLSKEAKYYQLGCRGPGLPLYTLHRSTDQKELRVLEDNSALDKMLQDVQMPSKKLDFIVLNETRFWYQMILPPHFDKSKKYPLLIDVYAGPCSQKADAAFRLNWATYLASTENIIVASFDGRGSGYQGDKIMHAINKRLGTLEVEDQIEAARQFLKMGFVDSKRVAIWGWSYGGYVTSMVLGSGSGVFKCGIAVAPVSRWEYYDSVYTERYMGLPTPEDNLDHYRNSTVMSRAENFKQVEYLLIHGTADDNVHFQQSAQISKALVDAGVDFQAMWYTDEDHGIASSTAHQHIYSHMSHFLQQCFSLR
T1 sequence (P27487 whole entry): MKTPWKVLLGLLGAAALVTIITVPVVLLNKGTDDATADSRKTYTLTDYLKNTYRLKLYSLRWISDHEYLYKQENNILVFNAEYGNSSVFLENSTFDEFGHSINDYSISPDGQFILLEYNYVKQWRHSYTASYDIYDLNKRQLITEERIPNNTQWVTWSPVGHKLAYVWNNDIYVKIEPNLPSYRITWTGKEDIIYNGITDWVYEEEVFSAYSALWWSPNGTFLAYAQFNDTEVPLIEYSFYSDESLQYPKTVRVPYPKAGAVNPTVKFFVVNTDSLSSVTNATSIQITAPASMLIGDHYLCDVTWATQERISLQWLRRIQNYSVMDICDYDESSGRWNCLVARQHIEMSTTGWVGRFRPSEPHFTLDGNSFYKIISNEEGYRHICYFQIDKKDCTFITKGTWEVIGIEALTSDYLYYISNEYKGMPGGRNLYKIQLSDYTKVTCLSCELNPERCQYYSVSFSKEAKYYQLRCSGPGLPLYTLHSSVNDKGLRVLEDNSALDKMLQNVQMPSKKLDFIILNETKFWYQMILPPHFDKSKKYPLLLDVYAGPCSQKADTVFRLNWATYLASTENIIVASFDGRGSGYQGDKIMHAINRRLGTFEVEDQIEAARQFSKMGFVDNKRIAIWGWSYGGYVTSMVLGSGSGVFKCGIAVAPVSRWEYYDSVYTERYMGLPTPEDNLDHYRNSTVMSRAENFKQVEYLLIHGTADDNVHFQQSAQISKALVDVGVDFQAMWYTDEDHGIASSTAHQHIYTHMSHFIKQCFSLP
T3 sequence (A0A8I3Q2I8 1-765): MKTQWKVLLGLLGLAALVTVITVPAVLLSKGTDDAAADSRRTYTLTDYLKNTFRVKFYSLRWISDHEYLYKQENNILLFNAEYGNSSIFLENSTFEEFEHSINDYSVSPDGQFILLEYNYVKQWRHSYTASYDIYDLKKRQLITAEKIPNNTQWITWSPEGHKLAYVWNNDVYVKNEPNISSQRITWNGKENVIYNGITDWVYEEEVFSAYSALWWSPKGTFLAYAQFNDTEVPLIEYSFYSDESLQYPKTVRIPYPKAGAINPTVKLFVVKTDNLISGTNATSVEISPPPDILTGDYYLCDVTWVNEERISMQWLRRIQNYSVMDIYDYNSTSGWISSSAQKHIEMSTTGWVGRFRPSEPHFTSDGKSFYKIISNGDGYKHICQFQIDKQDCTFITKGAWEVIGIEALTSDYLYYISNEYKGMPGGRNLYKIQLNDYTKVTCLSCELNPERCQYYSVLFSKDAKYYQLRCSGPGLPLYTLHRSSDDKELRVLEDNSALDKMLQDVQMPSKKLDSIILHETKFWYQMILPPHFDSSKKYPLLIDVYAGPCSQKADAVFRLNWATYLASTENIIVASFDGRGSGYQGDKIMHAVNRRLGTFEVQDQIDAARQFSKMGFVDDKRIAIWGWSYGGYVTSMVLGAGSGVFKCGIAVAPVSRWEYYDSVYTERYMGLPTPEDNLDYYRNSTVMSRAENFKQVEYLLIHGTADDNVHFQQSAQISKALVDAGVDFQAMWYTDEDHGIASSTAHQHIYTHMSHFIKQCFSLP

CC(C)[C@H](N)C(=O)N1C[C@@H](F)C[C@H]1C#N [Comparison Example 1]
IC50 (human DPP-IV; [4]): 1.3 nM | IC50 (human DPP-IV; [5]): < 5.6 nM | inhibition at 1 mg/kg (DPP-IV activity in serum [1]; po): 32 ± 3% | duration of action (DPP-IV activity in serum [1]): poor level of duration

N#C[C@@H]1C[C@H](F)CN1C(=O)[C@@H](N)CCC(=O)O [Comparison Example 2]
IC50 (human DPP-IV; [4]): 3 nM | IC50 (human DPP-IV; [5]): < 5.6 nM | inhibition at 1 mg/kg (DPP-IV activity in serum [1]; po): 32 ± 3% | duration of action (DPP-IV activity in serum [1]): poor level of duration

CC[C@H](C)[C@H](N)C(=O)N1C[C@@H](F)C[C@H]1C#N [Comparison Example 3]
half-life ([2]; t1/2 at 23° C., ambient room temperature 23° C.): 47 h | half-life ([2]; t1/2 at 37° C. (calc.), calculated for 37° C. from value measured at 23° C.): 23 h

CC(C)(C)[C@H](N)C(=O)N1C[C@@H](F)C[C@H]1C#N [Comparison Example 5]
IC50 (human DPP-IV; [4]): 3 nM | inhibition at 1 mg/kg (DPP-IV activity in serum [1]; po): 71 ± 13% | gastrointestinal toxicity, dose escalation in dogs (dogs; 0.3 mg/kg oral gavage): loose/mucoid feces with traces of blood | inhibition at 0.2 mg/kg (DPP-IV activity in serum [3]; po): 2%

N#C[C@@H]1CCCN1C(=O)[C@@H](N)C(c1ccc(F)cc1)c1ccc(F)cc1 [Comparison Example 6]
% DPP-IV Inhibition @ 6 Hrs. In Rats (DPP-IV activity in serum [1]; Table 3, rats, 6 Hrs.): 15 ± 1%

N#C[C@@H]1C[C@H](F)CN1C(=O)[C@@H](N)C(c1ccc(F)cc1)c1ccc(F)cc1 [Example 2, (2S,4S)-1-[(2S)-2-Amino-3,3-bis(4-fluorophenyl)propanoyl]-4-fluoropyrrolidine-2-carbonitrile hydrochloride]
inhibition at 1 mg/kg (DPP-IV activity in serum [1]; 1 mg/kg oral gavage, male CD rats, serum, 6 hrs, vs vehicle): 68 ± 4% | gastrointestinal toxicity, dose escalation in dogs (dogs; dog, in vivo): no adverse affects on gastrointestinal toxicity | inhibition at 0.5 mg/kg (DPP-IV activity in serum [3]; dogs, 0.5 mg/kg oral, 12 hours, serum): 45% | half-life (physchem): 266 h

COc1ccc(CS(=O)(=O)C(C)(C)[C@H](N)C(=O)N2C[C@@H](F)C[C@H]2C#N)cc1 [Example 9, (2S,4S)-1-{(2R)-2-Amino-3-[(4-methoxybenzyl)sulfonyl]-3-methylbutanoyl}-4-fluoropyrrolidine-2-carbonitrile hydrochloride]
t1/2 at 37° C. ([2]; 37° C.): 1733 h
